Six molecules from ChEMBL document CHEMBL1126429, “MDL 74147, a novel selective and soluble inhibitor of human renin. Synthesis, structure-activity relationship, species and protease selectivities” (Bioorg Med Chem Lett, 1992) can be followed below.

By IC50 is commonly meant the concentration that gives 50% inhibition. Read a low IC50 as higher potency. As a reminder, the Ki is the dissociation constant of the complex between target and ligand, obtained from inhibition or displacement. A higher Ki goes with weaker binding.

Assay [1] concerns the target T1, Renin (Homo sapiens, UniProt P00797).
T1 sequence (P00797 whole entry): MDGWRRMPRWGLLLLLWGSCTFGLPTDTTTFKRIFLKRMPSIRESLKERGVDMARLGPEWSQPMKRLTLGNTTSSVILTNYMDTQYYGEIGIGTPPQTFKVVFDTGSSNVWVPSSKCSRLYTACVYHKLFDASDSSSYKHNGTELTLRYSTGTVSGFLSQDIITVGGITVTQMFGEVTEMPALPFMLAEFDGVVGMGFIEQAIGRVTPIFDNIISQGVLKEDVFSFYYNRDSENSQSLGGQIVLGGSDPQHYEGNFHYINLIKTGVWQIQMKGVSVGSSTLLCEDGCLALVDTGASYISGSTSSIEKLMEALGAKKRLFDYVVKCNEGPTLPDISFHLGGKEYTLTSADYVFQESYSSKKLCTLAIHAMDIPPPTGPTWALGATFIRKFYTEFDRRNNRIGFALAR
In words: Concentration required to inhibit human plasma renin by 50% using radio-immunoassay was determined. It counts as cell-free.

Assay [2] addresses Pepsin A (Sus scrofa, UniProt P00791). The experiment in a line: Concentration required to inhibit the enzyme pepsin.
In assay [3] the target is Chymotrypsinogen A (Bos taurus, UniProt P00766). The experiment in a line: Concentration required to inhibit the enzyme chymotrypsin.

Where a SMILES comes first, the peptide text is derived from it. [ ]: non-standard residue; d: D form. The star is where a group is joined. Cha = N[C@@H](CC1CCCCC1)C(=O)O; Boc = CC(C)(C)OC(=O)*; CF3 = FC(F)(F)*

Chain of Pepsin A (P00791 whole entry): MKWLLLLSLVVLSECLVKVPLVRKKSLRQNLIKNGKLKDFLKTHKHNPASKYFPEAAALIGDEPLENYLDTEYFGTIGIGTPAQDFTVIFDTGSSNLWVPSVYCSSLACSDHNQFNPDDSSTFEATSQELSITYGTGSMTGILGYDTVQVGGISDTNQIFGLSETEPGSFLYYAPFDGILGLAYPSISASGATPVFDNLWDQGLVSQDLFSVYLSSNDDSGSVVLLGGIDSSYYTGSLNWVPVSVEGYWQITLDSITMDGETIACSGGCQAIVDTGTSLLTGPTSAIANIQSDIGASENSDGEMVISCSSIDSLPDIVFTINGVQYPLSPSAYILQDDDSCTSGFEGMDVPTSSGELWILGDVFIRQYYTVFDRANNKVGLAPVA

In assay [1], `CCC[C@@H](C(=O)N[C@@H](CC1CCCCC1)C(=O)C(F)(F)CN)N(C)C(=O)[C@H](Cc1ccc(OC)cc1)NC(=O)CC(C)C` came in with an IC50 of 40 µM. On the same count and under the same terms, for `COc1ccc(C[C@H](NC(=O)CC(C)C)C(=O)N[C@H](C)C(=O)N[C@@H](CC2CCCCC2)C(=O)C(F)(F)CN)cc1` the value was 27 µM; for `CCC[C@H](NC(=O)[C@H](Cc1ccc(OC)cc1)NC(=O)CC(C)C)C(=O)N[C@@H](CC1CCCCC1)C(O)C(F)(F)CN` (some centres not stated), greater than 1 µM. Take `CCC[C@H](NC(=O)[C@H](Cc1ccc(OC)cc1)NC(=O)CC(C)C)C(=O)N[C@@H](CC1CCCCC1)C(=O)C(F)(F)CN`: the Ki in assay [2] worked out at 40 µM; in assay [3] it was 2.5 µM. As to `COc1ccc(C[C@H](NC(=O)CC(C)C)C(=O)CCC(=O)N[C@@H](CC2CCCCC2)C(=O)C(F)(F)CN)cc1`, in assay [1], the half-maximal inhibitory concentration (IC50) was found to be 25 µM. The same measure, in the same setting: for `CC(C)C[C@H](NC(=O)[C@H](Cc1ccccc1)NC(=O)OC(C)(C)C)C(=O)N[C@@H](CC1CCCCC1)C(=O)C(F)(F)F` (Boc-Phe-Leu-[Cha]-CF3) the value was 0.25 µM.
